Bridge positions count the residues as written; N and C are the ends. Peptide text beside a SMILES is read from it. I, II: the chains in the order shown.
Tests used:
[1] = tested on: loss of the righting reflex (RR) in mice; experiment: Loss of the righting reflex assay in mice; assay type: in vivo, mouse; conditions: icv
Protocol: All of the experimental procedures adopted in the in vivo studies comply with the European Directive 2010/63/EU on protecting animals used for scientific purposes and Italian Legislative Decree no. 26 of March 4, 2014. These experiments were approved by the Animal Welfare Body of the University of Ferrara and by the Ministry of Health (authorization number 677/2024-PR). In vivo studies have been reported following ARRIVE guidelines. All experiments were conducted with mice bred and housed in the University of Ferrara’s animal facility under specific pathogen-free conditions. All mice were housed in cages with individual ventilation, with a constant temperature of 21 °C, 60% humidity, and a 12 h light/dark cycle. Food and water were provided ad libitum. CD-1 male and female mice, aged 2 to 4 months, were used. Details about the generation of NOP(−/−) and NOP(+/+) mice have been published previously; , these mice have been backcrossed on CD-1 strain in our laboratories. NOP(+/+) and NOP(−/−) littermates were obtained by mating with NOP(±) mice. All mice were genotyped using the polymerase chain reaction previously described. All mice were used only once. The RR assay was performed as previously described. […] Diazepam 15 mg/kg was injected ip. When the animals lost RR, they were placed in a plastic cage, and the time was recorded by an expert observer, blind to drug treatments and/or genotype. Animals were judged to have regained the RR response when they could correct themselves three times within 30 s. Sleeping time is defined as the amount of time between the loss and regaining of the RR; it was rounded to the nearest minute.
Concentration-response curves to agonists were analyzed by a four-parameter logistic nonlinear regression model: Effect = baseline + (E max – baseline)/(1 + 10^((logEC50–log[ligand])slope)). […] Experimental data were expressed as mean ± sem of at least 5 experiments. Potency values were expressed as the mean and CL95%. In vitro E max values were analyzed by one-way ANOVA, while in vivo latency data were evaluated by one-way ANOVA followed by Dunnett’s post hoc test. The proportion of mice losing the righting reflex was compared by Fisher’s exact test performed on raw data. GraphPad Prism 10.0 software was used for all of the analyses. The terminology employed is consistent with the International Union of Basic and Clinical Pharmacology (IUPHAR) recommendations. ,

[2] = tested on: loss of the righting reflex (RR) in NOP(−/−) mice; experiment: Loss of the righting reflex assay in NOP(−/−) mice; assay type: in vivo, mouse; conditions: 10 nmol, icv; N = 7–9 per group
Protocol: All of the experimental procedures adopted in the in vivo studies comply with the European Directive 2010/63/EU on protecting animals used for scientific purposes and Italian Legislative Decree no. 26 of March 4, 2014. These experiments were approved by the Animal Welfare Body of the University of Ferrara and by the Ministry of Health (authorization number 677/2024-PR). In vivo studies have been reported following ARRIVE guidelines. All experiments were conducted with mice bred and housed in the University of Ferrara’s animal facility under specific pathogen-free conditions. All mice were housed in cages with individual ventilation, with a constant temperature of 21 °C, 60% humidity, and a 12 h light/dark cycle. Food and water were provided ad libitum. […] When the animals lost RR, they were placed in a plastic cage, and the time was recorded by an expert observer, blind to drug treatments and/or genotype. […]
Concentration-response curves to agonists were analyzed by a four-parameter logistic nonlinear regression model: Effect = baseline + (E max – baseline)/(1 + 10^((logEC50–log[ligand])slope)). […] Experimental data were expressed as mean ± sem of at least 5 experiments. Potency values were expressed as the mean and CL95%. In vitro E max values were analyzed by one-way ANOVA, while in vivo latency data were evaluated by one-way ANOVA followed by Dunnett’s post hoc test. […]

C[C@H](NC(=O)CNC(=O)[C@@H](NC(=O)[C@H](Cc1ccccc1)NC(=O)CNC(=O)CNC(=O)[C@@H](N)Cc1ccccc1)[C@@H](C)O)C(=O)N[C@@H](CCCNC(=N)N)C(=O)N[C@@H](CCCCN)C(=O)N[C@@H](CO)C(=O)N[C@@H](C)C(=O)N[C@@H](CCCNC(=N)N)C(=O)N[C@@H](CCCCN)C(=O)N[C@@H](CSSC[C@H](NC(=O)[C@H](CCCCN)NC(=O)[C@H](CCCNC(=N)N)NC(=O)[C@H](C)NC(=O)[C@H](CO)NC(=O)[C@H](CCCCN)NC(=O)[C@H](CCCNC(=N)N)NC(=O)[C@H](C)NC(=O)CNC(=O)[C@@H](NC(=O)[C@H](Cc1ccccc1)NC(=O)CNC(=O)CNC(=O)[C@@H](N)Cc1ccccc1)[C@@H](C)O)C(=O)N[C@@H](C)C(=O)N[C@@H](CC(N)=O)C(=O)N[C@@H](CCC(N)=O)C(N)=O)C(=O)N[C@@H](C)C(=O)N[C@@H](CC(N)=O)C(=O)N[C@@H](CCC(N)=O)C(N)=O [1h, [[Cys^14]N/OFQ-NH2]2] (I: H-FGGFTGARKSARKCANQ-NH2 / II: H-FGGFTGARKSARKCANQ-NH2; disulfide I:14-II:14; N-terminus assumed)
mice that lost the RR, 3 nmol ([1]; 3 nmol, CD-1 mice, N = 8–10 per group): 75% | mice that lost the RR, 10 nmol ([1]; 10 nmol, CD-1 mice, N = 8–10 per group): all mice | sleep duration (interval between loss and recovery of the RR) ([1]; 3 and 10 nmol, only mice that lost the RR, experimental cutoff 420 min): ≥ 420 min | potency in eliciting loss of the RR relative to N/OFQ ([1]; mice, vs N/OFQ (and N/OFQ-NH2)): 3 fold | duration of the effect on RR ([1]; experimental cutoff 7 h): ≥ 7 h | loss of the RR in NOP(−/−) mice (in words) [2]: completely inactive
